Experiments:
mouse GLP-1 receptor [1] = biological target: T1, mouse GLP-1 receptor (Mus musculus, UniProt O35659)
T1 sequence (O35659 22-463): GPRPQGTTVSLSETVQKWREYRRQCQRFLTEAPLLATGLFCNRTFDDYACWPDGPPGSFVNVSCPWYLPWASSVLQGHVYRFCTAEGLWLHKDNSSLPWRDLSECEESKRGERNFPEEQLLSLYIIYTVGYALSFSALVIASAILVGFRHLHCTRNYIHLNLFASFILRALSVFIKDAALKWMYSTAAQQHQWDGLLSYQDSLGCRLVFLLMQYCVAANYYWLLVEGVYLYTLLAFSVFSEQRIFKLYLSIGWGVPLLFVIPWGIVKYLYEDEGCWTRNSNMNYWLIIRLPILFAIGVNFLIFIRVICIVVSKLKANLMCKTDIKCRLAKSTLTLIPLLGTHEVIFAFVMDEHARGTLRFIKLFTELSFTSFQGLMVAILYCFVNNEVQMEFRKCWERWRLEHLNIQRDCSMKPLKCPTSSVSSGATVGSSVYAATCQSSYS

[2] = Pharmacokinetic evaluation in mice, i.v. (final study, Fig. 5); conditions: C57BL/6J mice, LC-MS/MS
Protocol: Data are mean ± SEM, n = 3. Source data are provided as a Source Data file
After different time points, mice were sacrificed and blood samples were collected. The plasma was separated by centrifugation and the samples were frozen at −80 °C before analysis. A volume of 400 µL of each sample of plasma was mixed with 1 ml of acetonitrile to precipitate the protein and extract the compound. The sample were then vortexed and centrifuged (15,000 × g, 5 min, 16 °C) to sediment the precipitated protein.

[3] = Pharmacokinetic evaluation in mice, i.v. (first study, peer review file Table 3); conditions: in vivo, normal C57BL/6J mice, male, n = 3, 25 μg/mouse (~250 nmol/kg) intravenous, first PK study
Protocol: Our current understanding is that […]
ways (See Figure below for reviewing only).
(1 picture or pasted object on this page, not shown here)
PK mice Table 3 | Pharmacokinetic evaluation in mice by i.v.
*** (m L/m i n/ k g) (mL/kg) (m in)
Formulation: 2 mg/mL in PB S 1X.
An additional table has been prepared (Table 3) and the following text was added:
“A pharmacokinetic study was also conducted in mice to access the pharmacologic […]
The manuscript by Fremaux et al. describes the synthesis and biological evaluation of α-pept ide- […]
In the design of those analogues, four […]
peptide chemistry and medicinal chemistry.
The authors should, however, revise the manuscript for typographic and gramatical errors. As an example, the following sentence should be revised:
The manuscript was revised for typographic and grammatical errors and the sentence above was […]

in vitro [4] = conditions: mouse, plasma
Method in brief: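 Oligomer at 5 µM final in mouse plasma/PBS pH 7.4 (1:1) at 37 °C, with a plasma-free control defining t = 0. Aliquots quenched in cold acetonitrile at 20 and 60 min; remaining oligomer quantified by LC-MS extracted-ion peak area.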

mouse GLP-1 receptor [5] = biological target: T1, mouse GLP-1 receptor; assay: cell-based
in vitro [6] = conditions: isolated enzyme neprilysin, pH 8, % remaining analogue
Protocol: (§1) Stock solutions of the oligomers were prepared at a concentration of 400 µM in a solution of 50 mM HEPES buffer, 50 mM NaCl, 0.05% Tween-80, pH 8.0. Stock solution of NEP 24.11 was prepared at a concentration of 100 µg mL^−1 in water. Stability of oligomers to NEP 24.11 was assessed by conducting protease reaction in a 96-well plates at 20 °C. […] Each compound was also incubated in the absence of the enzyme (12 µL of HEPES buffer and 38 µL of oligomer). […] A portion of the quenched reaction solution was analysed by HPLC. The time course of peptide degradation was determined by integrating the area of each peak in a series of HPLC traces.

NEP 24.11 = NEP 24.11 (Homo sapiens, UniProt P08473); assay: in vitro; conditions: pH 8
Protocol: as §1

[7] = male, C57BL/6J, mouse, in vivo, iv, 1 mg/kg, Concentration (plasma), animal 1
[8] = male, C57BL/6J, mouse, in vivo, iv, 1 mg/kg, Concentration (plasma), animal 2
[9] = male, C57BL/6J, mouse, in vivo, iv, 1 mg/kg, Concentration (plasma), animal 3

Chain of NEP 24.11 (P08473 whole entry): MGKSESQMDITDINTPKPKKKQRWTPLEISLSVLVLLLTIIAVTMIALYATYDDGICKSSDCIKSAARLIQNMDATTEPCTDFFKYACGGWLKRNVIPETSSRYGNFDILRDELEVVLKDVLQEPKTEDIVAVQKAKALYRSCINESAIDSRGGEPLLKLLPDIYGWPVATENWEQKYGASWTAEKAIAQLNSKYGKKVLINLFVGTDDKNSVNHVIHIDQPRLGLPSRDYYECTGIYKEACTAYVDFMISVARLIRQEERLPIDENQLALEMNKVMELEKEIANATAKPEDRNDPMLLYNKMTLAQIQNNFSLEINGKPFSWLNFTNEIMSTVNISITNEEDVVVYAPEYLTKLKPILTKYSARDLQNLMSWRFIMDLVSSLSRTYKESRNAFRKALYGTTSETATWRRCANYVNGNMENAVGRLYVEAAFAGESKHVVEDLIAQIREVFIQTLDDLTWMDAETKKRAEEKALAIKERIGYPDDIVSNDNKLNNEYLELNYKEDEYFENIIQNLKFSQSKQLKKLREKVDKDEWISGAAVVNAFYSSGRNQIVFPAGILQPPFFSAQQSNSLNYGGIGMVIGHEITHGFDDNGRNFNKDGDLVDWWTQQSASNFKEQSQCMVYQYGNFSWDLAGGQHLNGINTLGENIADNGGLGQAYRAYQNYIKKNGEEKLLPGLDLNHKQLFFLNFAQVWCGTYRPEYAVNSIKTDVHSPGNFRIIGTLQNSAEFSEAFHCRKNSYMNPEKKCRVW

CC[C@H](C)[C@H](NC(=O)[C@H](Cc1ccccc1)NC(=O)[C@H](CCC(=O)O)NC(=O)[C@H](CCCCN)NC(=O)[C@H](C)NC(=O)[C@H](C)NC(=O)[C@H](CCC(N)=O)NC(=O)CNC(=O)[C@H](CCC(=O)O)NC(=O)[C@H](CC(C)C)NC(=O)[C@H](Cc1ccc(O)cc1)NC(=O)[C@H](CO)NC(=O)[C@H](CO)NC(=O)[C@@H](NC(=O)[C@H](CC(=O)O)NC(=O)[C@H](CO)NC(=O)[C@@H](NC(=O)[C@H](Cc1ccccc1)NC(=O)[C@@H](NC(=O)CNC(=O)[C@H](CCC(=O)O)NC(=O)CNC(=O)[C@@H](N)Cc1c[nH]cn1)[C@@H](C)O)[C@@H](C)O)C(C)C)C(=O)N[C@@H](C)C(=O)N[C@@H](Cc1c[nH]c2ccccc12)C(=O)N[C@@H](CC(C)C)C(=O)N[C@H](C(=O)N[C@@H](CCCCN)C(=O)NCC(=O)N[C@@H](CCCNC(=N)N)C(=O)NCC(N)=O)C(C)C [compound 1, GLP-1-G^2 (GG2)]
LogEC50 (best-fit value) (mouse GLP-1 receptor [1]): -9.62 | Potency (%), percentage of potency compare to GLP-1-G^2 (mouse GLP-1 receptor [1]; cAMP production, from EC50): 100% | Concentration (plasma) ([2]; time 3 min, animal 3): 3680 nM | Concentration (plasma) ([2]; time 15 min, animal 3): 60 nM | Concentration (plasma) ([2]; time 30 min, animal 2): 10 nM | Concentration (plasma) ([2]; time 30 min, animal 3): 0 nM | level at time molar at 1 min [2, 7]: 7920 nM | level at time molar at 1 min [2, 8]: 8370 nM | level at time molar at 1 min [2, 9]: 10800 nM | level at time molar at 0.05 h ([2]; male, C57BL/6J, mouse, in vivo, iv, 1 mg/kg, Concentration (plasma), time 3 min, animal 1): 3740 nM | level at time molar at 0.05 h ([2]; male, C57BL/6J, mouse, in vivo, iv, 1 mg/kg, Concentration (plasma), time 3 min, animal 2): 3500 nM | level at time molar at 5 min [2, 7]: 1780 nM | level at time molar at 5 min [2, 8]: 2610 nM | level at time molar at 5 min [2, 9]: 2540 nM | level at time molar at 10 min [2, 7]: 360 nM | level at time molar at 10 min [2, 8]: 430 nM | level at time molar at 10 min [2, 9]: 380 nM | level at time molar at […] ([2]; male, C57BL/6J, mouse, in vivo, iv, 1 mg/kg, Concentration (plasma), time 15 min, animal 1): 100 nM | level at time molar at […] ([2]; male, C57BL/6J, mouse, in vivo, iv, 1 mg/kg, Concentration (plasma), time 15 min, animal 2): 60 nM | level at time molar at 0.5 h ([2]; male, C57BL/6J, mouse, in vivo, iv, 1 mg/kg, Concentration (plasma), time 30 min, animal 1): 10 nM | clearance ([3]; 2 mg/mL in PBS 1X): 448 mL/min/kg | half-life [3]: 7 min | Vd ([3]; read-out: Vz): 4.48 L/kg | half-life (in vitro [4]; pH 7.4): 16 min | remaining at 20 min (in vitro [4]; pH 7.4, % remaining analogue): 34.8% | remaining at 1 h (in vitro [4]; pH 7.4, % remaining analogue): 23.9% | EC50 (mouse GLP-1 receptor [5]): 0.24 nM | Emax (mouse GLP-1 receptor [5]; read-out: Top (best-fit value)): 106% | remaining at 1 h (in vitro [6]): 77.5% | remaining at 2 h (in vitro [6]): 63.1% | remaining at 4 h (in vitro [6]): 47.1% | remaining at 6 h (in vitro [6]): 32.6% | % remaining analogue (NEP 24.11; isolated enzyme neprilysin, 22 h): 0.6% | NEP 24.11 t1/2 (NEP 24.11): 216 min

From article PMC6389962 (Nature Communications, 2019)
